One data set deals with Heart. Put plainly: Inhibition of global ischemia-induced diastolic contracture in isolated Langendorff perfused guinea pig model heart at 1 uM after 15 mins. It is filed as functional, Cavia porcellus.
Data set [1] addresses T1, Sodium channel protein type 5 subunit alpha (Homo sapiens, UniProt Q14524). Put plainly: Inhibition of human sodium Nav1.5 channel expressed in HEK293 cells assessed as inhibition of veratridine-induced late sodium current elicited at -30 mV from holding potential of -90 mV at 10 uM by patch clamp technique. It is filed as cell-based. As to conditions: for inhibition at 10 µM: HEK293, human.

Data set [2] concerns Cardiac atrium. Put plainly: tissue or blood. As to conditions: Rattus norvegicus, Wistar, 0.25 h, read-out: INH.
Description: (§1) Inhibition of veratridine-induced diastolic contracture in Wistar rat atrium assessed as inhibition of systolic isometric tension of at 1 uM 15 mins
In data set [3] the target is T1, Sodium channel protein type 5 subunit alpha. Put plainly: Inhibition of human sodium Nav1.5 channel expressed in HEK293 cells assessed as inhibition of veratridine-induced late sodium current elicited at -30 mV from holding potential of -110 mV at 10 uM by patch clamp technique. The data set is classed as cell-based. As to conditions: for inhibition at 10 µM: HEK293, human.

The subject of data set [4] is Oryctolagus cuniculus. Put plainly: Reversal of ischemia-induced ST segment elevation in iv dosed anesthetized New Zealand white rabbit. The data set is classed as functional.
Data set [5] relates to Oryctolagus cuniculus. Put plainly: Effect on heart rate in anesthetized New Zealand white rabbit myocardial ischemia model assessed as beats per minute at 0.16 mg/kg. The data set is classed as functional.
Data set [6] relates to Oryctolagus cuniculus. Put plainly: Effect on heart rate in anesthetized New Zealand white rabbit myocardial ischemia model assessed as beats per minute at 2.5 mg/kg. It is filed as functional.
The test system of data set [7] is Oryctolagus cuniculus. Put plainly: Reversal of ischemia-induced ST segment elevation in anesthetized New Zealand white rabbit at 2.5 mg/kg, iv. The data set is classed as functional, organism-based. Also on record: dose 2.5 mg/kg.
The test system of data set [8] is Oryctolagus cuniculus. Put plainly: Effect on heart rate in anesthetized New Zealand white rabbit myocardial ischemia model assessed as beats per minute at 0.04 mg/kg. It is filed as functional.
Data set [9] has as its system Oryctolagus cuniculus. Put plainly: Effect on heart rate in anesthetized New Zealand white rabbit myocardial ischemia model assessed as beats per minute at 0.63 mg/kg. The data set is classed as functional.
For data set [10], the system named is Oryctolagus cuniculus. Put plainly: Effect on heart rate in anesthetized New Zealand white rabbit myocardial ischemia model assessed as beats per minute at 0.01 mg/kg. The data set is classed as functional.
Data set [11] deals with T1, Sodium channel protein type 5 subunit alpha. Put plainly: Inhibition of sodium Nav1.5 channel assessed as inhibition of late sodium current elicited at -30 mV from holding potential of -110 mV.
Data set [12] concerns Oryctolagus cuniculus. Put plainly: Reversal of ischemia-induced ST segment elevation in po dosed anesthetized New Zealand white rabbit. It is filed as functional.
The target of data set [13] is T1, Sodium channel protein type 5 subunit alpha. Put plainly: Inhibition of sodium Nav1.5 channel assessed as inhibition of late sodium current elicited at -30 mV from holding potential of -90 mV.
Data set [14] has as its system Oryctolagus cuniculus. Put plainly: Ratio of ED50 for reversal of ischemia-induced ST segment elevation in po dosed New Zealand white rabbit to ED50 for reversal of ischemia-induced ST segment elevation iv dosed New Zealand white rabbit. It is filed as functional.
For data set [15], the system named is Cardiac atrium. As to conditions: Rattus norvegicus, Wistar, 1 uM.
Description: as §1

Calls of active or inactive are those of the source. The rule behind the calls is not given here.

T1 sequence (Q14524 whole entry): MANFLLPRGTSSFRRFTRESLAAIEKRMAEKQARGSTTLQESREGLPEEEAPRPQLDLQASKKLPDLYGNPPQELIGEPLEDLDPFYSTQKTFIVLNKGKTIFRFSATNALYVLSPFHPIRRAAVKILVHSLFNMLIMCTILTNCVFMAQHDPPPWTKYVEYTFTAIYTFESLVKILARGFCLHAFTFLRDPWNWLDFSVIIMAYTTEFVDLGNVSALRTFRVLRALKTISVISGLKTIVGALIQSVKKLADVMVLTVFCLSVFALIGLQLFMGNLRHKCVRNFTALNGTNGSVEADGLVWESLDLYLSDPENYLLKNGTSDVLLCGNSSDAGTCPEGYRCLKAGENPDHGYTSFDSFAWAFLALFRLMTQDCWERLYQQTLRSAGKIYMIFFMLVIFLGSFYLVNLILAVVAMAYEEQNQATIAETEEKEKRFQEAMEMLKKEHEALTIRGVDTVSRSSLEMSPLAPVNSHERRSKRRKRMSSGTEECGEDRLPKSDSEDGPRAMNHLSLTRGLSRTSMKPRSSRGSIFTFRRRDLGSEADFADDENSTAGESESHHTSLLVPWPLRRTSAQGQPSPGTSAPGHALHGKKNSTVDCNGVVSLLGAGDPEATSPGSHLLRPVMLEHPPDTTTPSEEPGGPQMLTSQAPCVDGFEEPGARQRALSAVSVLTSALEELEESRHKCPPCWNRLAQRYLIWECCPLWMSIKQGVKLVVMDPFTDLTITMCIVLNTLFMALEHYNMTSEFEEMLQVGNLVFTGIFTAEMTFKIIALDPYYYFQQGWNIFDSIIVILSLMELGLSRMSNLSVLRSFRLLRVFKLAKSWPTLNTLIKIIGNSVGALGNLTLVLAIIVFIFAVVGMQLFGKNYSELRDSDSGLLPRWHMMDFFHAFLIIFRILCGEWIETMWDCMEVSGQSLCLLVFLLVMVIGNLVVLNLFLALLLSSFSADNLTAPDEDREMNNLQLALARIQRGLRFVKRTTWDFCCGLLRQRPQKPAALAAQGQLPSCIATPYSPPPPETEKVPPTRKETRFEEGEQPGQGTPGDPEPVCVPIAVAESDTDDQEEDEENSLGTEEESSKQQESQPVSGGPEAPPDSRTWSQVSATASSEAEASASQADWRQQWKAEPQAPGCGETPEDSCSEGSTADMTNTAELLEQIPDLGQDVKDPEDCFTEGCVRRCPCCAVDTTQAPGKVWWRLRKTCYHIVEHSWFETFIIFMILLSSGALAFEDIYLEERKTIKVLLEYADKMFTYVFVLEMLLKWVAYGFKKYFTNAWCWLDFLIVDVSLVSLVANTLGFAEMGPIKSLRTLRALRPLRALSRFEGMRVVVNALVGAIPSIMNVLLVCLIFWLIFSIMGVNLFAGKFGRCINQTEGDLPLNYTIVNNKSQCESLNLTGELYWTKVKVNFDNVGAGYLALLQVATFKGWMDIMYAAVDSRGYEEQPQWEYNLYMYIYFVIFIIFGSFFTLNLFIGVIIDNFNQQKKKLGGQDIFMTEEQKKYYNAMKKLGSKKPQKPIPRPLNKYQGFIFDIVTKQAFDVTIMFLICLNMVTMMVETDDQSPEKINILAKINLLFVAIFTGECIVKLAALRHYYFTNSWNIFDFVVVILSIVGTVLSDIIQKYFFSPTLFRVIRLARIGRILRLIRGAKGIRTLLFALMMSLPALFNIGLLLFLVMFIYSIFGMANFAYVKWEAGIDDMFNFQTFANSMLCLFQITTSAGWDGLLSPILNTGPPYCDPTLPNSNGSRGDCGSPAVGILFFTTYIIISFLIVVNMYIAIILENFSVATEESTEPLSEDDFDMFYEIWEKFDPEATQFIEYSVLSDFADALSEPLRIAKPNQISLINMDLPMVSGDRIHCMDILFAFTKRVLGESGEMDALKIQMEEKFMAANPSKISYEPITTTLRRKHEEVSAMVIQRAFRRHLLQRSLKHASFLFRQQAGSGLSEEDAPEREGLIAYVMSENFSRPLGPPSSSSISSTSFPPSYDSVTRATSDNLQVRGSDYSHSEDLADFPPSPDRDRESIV

On to `COc1ccccc1SC[C@H](CN[C@@H]1COc2ccccc2SC1)OC`, for which the “inhibition (INH)” value in the data set on Heart was 64%. Also, the inhibition at 10 µM in [1] was determined as 27%; in data set [3], 12%. Further, the inhibition at 1 µM in the data set with Cardiac atrium [2] was 45%.
`COc1cc2c(cc1OC)CC(=O)N(CCCN(C)C[C@H]1Cc3cc(OC)c(OC)cc31)CC2` [IVABRADINE]: in the data set with Oryctolagus cuniculus [4], the ED50 came to 0.59 mg/kg. Besides, the Activity is on record as -20.7 bpm with Oryctolagus cuniculus [5], -112.6 bpm in the data set with Oryctolagus cuniculus [6], -3.4 bpm in the data set on Oryctolagus cuniculus [8] and -69.4 bpm in the data set with Oryctolagus cuniculus [9]. Further, the result in the data set on Oryctolagus cuniculus [7] was Active.
Regarding `CCC[C@@H](CN[C@@H]1COc2ccccc2SC1)CSc1ccccc1OC`, the inhibition at 10 µM in data set [1] was 23%; in data set [3], 17%. The inhibition at 1 µM in the data set on Cardiac atrium [2] was determined as 23%.
Regarding `COc1ccccc1SC[C@H](CN[C@@H]1COc2ccccc2SC1)OC(=O)c1ccccc1`, the inhibition at 1 µM with Cardiac atrium [2] was found to be 3%.
Consider `CCCO[C@@H](CN[C@@H]1COc2ccccc2SC1)CSc1ccccc1OC`, for which the inhibition at 10 µM in data set [1] and in data set [3] was 27% each time. Also, the inhibition at 1 µM with Cardiac atrium [2] worked out at 30%.
With `COc1ccccc1SC[C@H](CN[C@@H]1COc2ccccc2SC1)C(C)C`, in the data set on Heart, the “inhibition (INH)” value was 31%. Further, the inhibition at 10 µM is 34% in [1] and 31% in data set [3]. The inhibition at 1 µM in the data set on Cardiac atrium [2] was 90%.
With `COc1ccccc1SC[C@H](C)CN[C@H]1COc2ccccc2SC1`, the inhibition at 10 µM in data set [1] stood at 44%; in data set [3] it was 30%. For the same compound, the inhibition at 1 µM in the data set on Cardiac atrium [2] came to 26%.
With `COc1ccccc1SCCCN[C@@H]1COc2ccccc2SC1`, in the data set on Cardiac atrium [2], the inhibition at 1 µM turned out to be 3%.
In the case of `CC[C@@H](CN[C@@H]1COc2ccccc2SC1)CSc1ccccc1OC`, the “inhibition (INH)” value in the data set on Heart came to 68%. For the same compound, the inhibition at 10 µM in data set [1] worked out at 54%; in [3], 46%. Further, the inhibition at 1 µM in the data set on Cardiac atrium [2] amounted to 86%.
For the compound `COc1ccccc1OCC(O)CN1CCN(CC(=O)Nc2c(C)cccc2C)CC1` (configuration not stated) [RANOLAZINE], the ED50 with Oryctolagus cuniculus [4] was over 2.5 mg/kg. For the same compound, the results for the inhibition at 10 µM in data set [1] and in [3] were 19% and 11%, respectively.
Regarding `COc1ccccc1SCC(CN[C@@H]1COc2ccccc2SC1)=C(C)C`, in the data set on Heart, the “inhibition (INH)” value is reported as 16%. The inhibition at 10 µM in [1] turned out to be 37%; in data set [3] it was 31%. Besides, the inhibition at 1 µM in the data set on Cardiac atrium [2] is 42%.
`COc1ccccc1SC[C@@H](C)CN[C@H]1COc2ccccc2SC1`: the inhibition at 10 µM turned out to be 41% in data set [1] and 31% in [3]. Moreover, the inhibition at 1 µM in the data set on Cardiac atrium [2] worked out at 25%.
As to `COc1ccccc1SCC(O)CN[C@@H]1COc2ccccc2SC1` (mixture of isomers), the results for the inhibition at 10 µM in data set [1] and in data set [3] were 42% and 37%, respectively. In addition, in the data set with Cardiac atrium [2], the inhibition at 1 µM stood at 50%.
In the case of `COc1ccccc1SC[C@@H](C)CN[C@@H]1COc2ccccc2SC1`, the Activity in the data set with Oryctolagus cuniculus [10] was -3.2 bpm; with Oryctolagus cuniculus [5], -6.4 bpm; with Oryctolagus cuniculus [6], -8.6 bpm; in the data set with Oryctolagus cuniculus [8], 0.3 bpm; with Oryctolagus cuniculus [9], -3.2 bpm. In addition, the IC50 in [11] came to 2560 nM; in [13] it was 5.77 µM. For the same compound, in the data set on Heart, the “inhibition (INH)” value worked out at 65%. Also, the results for the ED50 in the data set with Oryctolagus cuniculus [12] and in the data set on Oryctolagus cuniculus [4] were 0.13 mg/kg and 0.05 mg/kg, respectively. Further, the values for the inhibition at 10 µM in [1] and in data set [3] were 70% and 53%, respectively. In the data set on Cardiac atrium [2], the inhibition at 1 µM is 74%. Also, the “Ratio ED50” value with Oryctolagus cuniculus [14] came out at 2.6.
As for `COc1ccccc1SC[C@H](C)CN[C@@H]1COc2ccccc2SC1`, the inhibition at 10 µM in data set [1] came to 34%; in data set [3], 22%. The inhibition at 1 µM in the data set on Cardiac atrium [2] is 38%.
As for `COc1ccc(CCN(C)CCCOc2nsc(-c3ccccc3)n2)cc1OC`, in the data set on Heart, the “inhibition (INH)” value is reported as 39%. For the same compound, the inhibition at 10 µM in data set [1] and in data set [3] was 60% throughout. Further, in the data set with Cardiac atrium [2], the inhibition at 1 µM is 45%.
On to `COc1ccccc1SC[C@@H](O)CN[C@@H]1COc2ccccc2SC1`, for which the “inhibition (INH)” value in the data set with Heart stood at 14%. The inhibition at 10 µM in data set [1] was found to be 75%; in data set [3], 69%. In the data set with Cardiac atrium [2], the inhibition at 1 µM turned out to be 54%.
For `COc1ccccc1SC[C@H](O)CN[C@@H]1COc2ccccc2SC1`, the inhibition at 10 µM came to 30% in data set [1] and 26% in data set [3]. Also, in the data set with Cardiac atrium [2], the inhibition at 1 µM stood at 7%.
Regarding `COc1ccccc1SC[C@H](CN[C@@H]1COc2ccccc2SC1)OC(C)=O`, the inhibition at 1 µM in the data set on Cardiac atrium [2] came to 9%.
Consider `COc1ccccc1SCC(O)CN[C@H]1COc2ccccc2SC1` (mixture of isomers), for which the results for the inhibition at 10 µM in [1] and in data set [3] were 21% and 16%, respectively. The inhibition at 1 µM in the data set with Cardiac atrium [2] was 26%.
The matching figures for `COc1ccccc1SC[C@@H](F)CN[C@@H]1COc2ccccc2SC1`: 19%, 11% and 32%.
The matching figures for `C=C(CN[C@@H]1COc2ccccc2SC1)CSc1ccccc1OC`: 37%, 36% and 26%.
As to `CCO[C@@H](CN[C@@H]1COc2ccccc2SC1)CSc1ccccc1OC`, the “inhibition (INH)” value in the data set with Heart worked out at 33%. Besides, the inhibition at 10 µM in data set [1] came out at 34%; in [3], 22%. Also, the inhibition at 1 µM in the data set on Cardiac atrium [2] was determined as 46%.
For the compound `NC1=N[C@H](O)[C@H]2[C@H]3O[C@]4(O)O[C@@H]([C@@H](O)[C@@]2(N1)[C@@H]4O)[C@]3(O)CO` [TETRODOTOXIN], the “inhibition (INH)” value in data set [1] (human, hek293, 10 µM) turned out to be 87%; in data set [3] (human, hek293, 10 µM), 79%. Moreover, the inhibition in the data set on Cardiac atrium [15] amounted to 64%.

These data come from ChEMBL document CHEMBL1157462, “Sodium late current blockers in ischemia reperfusion: is the bullet magic?” (J Med Chem, 2008).
